Series [1] deals with Vero. The series is described as follows: Cytotoxicity against african green monkey Vero cells assessed as loss of cell monolayers after 96 hrs. Type of series: cell-based. The following applies: Chlorocebus sabaeus.
Series [2] concerns Calf thymus DNA. As to the kind of experiment: Protective activity against bleomycin-iron complex-induced calf thymus DNA damage assessed as chromogen formation at 0.1 mg/ml after 1 hr. The following applies: Bos taurus. In kind it is nucleic-acid assay.
Series [3] relates to Brain. As to the kind of experiment: Antioxidant activity in rat brain/kidney homogenates assessed as inhibition of lipid peroxidation at 2 mM by […] method. Type of series: functional, tissue-based.
The nature of series [4]: Toxicity in rat erythrocytes assessed as hemolysis at 2 mM. In kind it is cell-based, Erythrocyte. To be noted: read-out: Activity.
The nature of series [5]: Cytotoxicity against human WI38 cells assessed as loss of cell monolayers after 96 hrs. In kind it is cell-based. The following applies: WI-38, 96 h.
A short description of series [6]: Cytotoxicity against mouse EAC assessed as dead cells at 1 mg/ml after 2 hrs using trypan blue staining by hemocytometer analysis. Type of series: functional, Ehrlich.
Series [7] concerns HepG2. The series is described as follows: Cytotoxicity against human HepG2 cells assessed as loss of cell monolayers after 96 hrs. Type of series: functional, cell-based. The following applies: HepG2, 96 h.
In series [8] the test system is MCF7. As to the kind of experiment: Cytotoxicity against human MCF7 cells assessed as loss of cell monolayers after 96 hrs. In kind it is functional, cell-based. The following applies: MCF7, 96 h.
Series [9] is described as follows: Cytotoxicity against human WI38 cells assessed as cell viability at 100 ug/ml after 96 hrs relative to control. The following applies: read-out: Activity. Type of series: cell-based, WI-38.
The nature of series [10]: Cytotoxicity against human WI38 cells assessed as cell viability at 10 ug/ml after 96 hrs relative to control. In kind it is cell-based, WI-38. To be noted: read-out: Activity.
Series [11] can be described thus: Cytotoxicity against human WI38 cells assessed as cell viability at 50 ug/ml after 96 hrs relative to control. Type of series: cell-based, WI-38. To be noted: read-out: Activity.
The nature of series [12]: Cytotoxicity against mouse EAC assessed as dead cells at 25 ug/ml after 2 hrs using trypan blue staining by hemocytometer analysis. Type of series: functional, Ehrlich.

≈ marks a conversion by molar mass, not a printed value. Calls of active or inactive are those of the source. The rule behind the calls is not given here.

The results in this text go back to ChEMBL document CHEMBL1649394, “Cytotoxic and protective DNA damage of three new diterpenoids from the brown alga Dictoyota dichotoma” (Eur J Med Chem, 2011).

The term IC50 denotes the concentration that inhibits the measured activity by half. The term inhibition denotes the drop in the measured response relative to a control, in per cent. Regarding `C=C1C[C@@H](O)[C@@H]([C@H](C)CCC=C(C)C)[C@@H](O)[C@@H]2C(C)=CC[C@@H]12`, the IC50 amounted to 72.3 µg/mL (≈ 237 µM) in [1], 62.6 µg/mL (≈ 206 µM) in series [5], 81.2 µg/mL (≈ 267 µM) in series [7] and 68.2 µg/mL (≈ 224 µM) in series [8]. For the same compound, the outcome in [2] was Active. In addition, the inhibition in series [3] worked out at 61.6%. Besides, the hemolysis at 2000 µM in [4] came to 1.1%. Moreover, the Activity in series [6] was 60.9%.
For `C=C1CC[C@H](OC(C)=O)[C@]2(C)CCC3=C(C(C)C)CC[C@@]3(C)C[C@@]12O` [AMIJIOL ACETATE], the half-maximal inhibitory concentration (IC50) in series [1] worked out at 20.5 µg/mL; in series [5], 14.2 µg/mL; in series [7], 25.1 µg/mL; in series [8], 21.2 µg/mL. In addition, the outcome in series [2] was Active. Also, the inhibition in series [3] was 83.3%. In addition, the hemolysis at 2000 µM in series [4] turned out to be 0.7%. The viability at 96 h, 100 ug/ml in series [9] was determined as 0%. Also, the viability at 96 h, 10 ug/ml in series [10] was 65%. For the same compound, the viability at 96 h, 50 ug/ml in [11] came to 12%. The Activity in series [6] was 85.9%.
As to `C=C1CC[C@H](O)[C@]2(C)C[C@H](OC(C)=O)C3=C(C(C)C)[C@H](OC(C)=O)C[C@@]3(C)C[C@@]12O` [AMIJIOL-7,10-DIACETATE], the concentration for half-maximal inhibition (IC50) in [1] turned out to be 21.4 µg/mL (≈ 50.9 µM); in series [5], 16.2 µg/mL (≈ 38.5 µM); in series [7] it was 47 µg/mL (≈ 112 µM); in series [8], 30.5 µg/mL (≈ 72.5 µM). Besides, in series [2], the outcome was Active. In addition, the inhibition in series [3] came to 80.2%. The hemolysis at 2000 µM in series [4] stood at 1.4%. Besides, the Activity in [6] turned out to be 71.2%.
On to `C=C1CC[C@H](O)[C@]2(C)CCC3=C(C(C)C)CC[C@@]3(C)C[C@@]12O` [AMIJIOL], for which the IC50 came out at 76.4 µg/mL (≈ 251 µM) in [1], 84.6 µg/mL (≈ 278 µM) in series [5], 70.2 µg/mL (≈ 231 µM) in series [7] and 75.5 µg/mL (≈ 248 µM) in series [8]. The result in series [2] was Active. For the same compound, in [3], the inhibition is 59.2%. The hemolysis at 2000 µM in series [4] was 0.5%. Further, in series [6], the Activity came out at 56%.
Regarding `O=C1O[C@H]([C@@H](O)CO)C(O)=C1O` [ASCORBIC ACID], the inhibition in [3] worked out at 88.6%. The hemolysis at 2000 µM in series [4] was determined as 0.85%.
`CC(C)=CCC[C@@H](C)[C@H]1[C@@H](O)[C@@H]2C(C)=CC[C@H]2[C@@](C)(O)C[C@H]1O` [DICTYOL C]: the 50% inhibitory concentration (IC50) in series [1] came out at 161 µg/mL (≈ 498 µM); in [5] it was 111 µg/mL (≈ 343 µM); in [7], 101 µg/mL (≈ 312 µM); in [8], 140 µg/mL (≈ 436 µM). The outcome in [2] was inactive. In addition, the inhibition in series [3] came out at 57.7%. Also, in [4], the hemolysis at 2000 µM came out at 1.1%. Besides, the Activity in series [6] is reported as 18%.
As for `C/C1=C\[C@@H](O)C/C(C)=C/C[C@]2(C)CCC(C(C)C)=C2CC1` [DOLABELLATRIENOL], the IC50 in series [1] was determined as 121 µg/mL (≈ 418 µM); in series [5], 101 µg/mL (≈ 349 µM); in [7] it was 102 µg/mL (≈ 355 µM); in [8] it was 150 µg/mL (≈ 522 µM). Further, the result in series [2] was inactive. Besides, the inhibition in series [3] came to 24.4%. In series [4], the hemolysis at 2000 µM turned out to be 5.75%. For the same compound, in series [6], the Activity worked out at 15.1%.
As to `O=c1[nH]cc(F)c(=O)[nH]1` [FLUOROURACIL], the IC50 in series [1] was found to be 6.5 µg/mL (≈ 50 µM); in series [5], 3.2 µg/mL (≈ 24.6 µM); in series [7], 8.6 µg/mL (≈ 66.1 µM); in series [8], 2.3 µg/mL (≈ 17.7 µM). In addition, the Activity in series [12] is listed as 99.5%.
As for `CC(C)=CCCC(C)C1CC/C(C)=C/CCC2COC(O)C21` (configuration not stated) [ISODICTYOHEMIACETAL], the IC50 in [1] worked out at 76.4 µg/mL (≈ 249 µM); in series [5] it was 84.6 µg/mL (≈ 276 µM); in series [7], 70.2 µg/mL (≈ 229 µM); in series [8], 75.5 µg/mL (≈ 246 µM). In addition, the result in series [2] was Active. For the same compound, in series [3], the inhibition was 57.4%. In addition, the hemolysis at 2000 µM in series [4] is 0.75%. Moreover, in series [6], the Activity stood at 59.1%.
As for `CC(C)=CCC[C@@H](C)[C@@H]1CC=C(C)[C@@H]2CC=C(C)[C@H]2[C@@H]1O` [ISOPACHYDICTYOL A], the concentration for half-maximal inhibition (IC50) is 28.3 µg/mL (≈ 98.1 µM) in [1], 22.4 µg/mL (≈ 77.6 µM) in series [5], 39.2 µg/mL (≈ 136 µM) in series [7] and 39.2 µg/mL (≈ 136 µM) in [8]. Further, the result in series [2] was Active. In series [3], the inhibition came to 59.9%. The hemolysis at 2000 µM in series [4] came to 1.4%. In series [6], the Activity is listed as 48.4%.
For the compound `C=C1CC[C@@H]([C@H](C)CCC=C(C)C)[C@@H](O)[C@@H]2C(C)=CC[C@@H]12` [PACHYDICTYOL A], the IC50 was determined as 27.4 µg/mL (≈ 95 µM) in [1], 24.6 µg/mL (≈ 85.3 µM) in series [5], 40.2 µg/mL (≈ 139 µM) in series [7] and 37.5 µg/mL (≈ 130 µM) in series [8]. Besides, in [2], the result was Active. Also, the inhibition in series [3] amounted to 50.2%. For the same compound, in series [4], the hemolysis at 2000 µM turned out to be 2.45%. Also, the Activity in [6] came out at 42.9%.
